Assay results reported in patent US20150377888A1, “Methods for Predicting and Preventing Metastasis in Triple Negative Breast Cancers” (INSERM (INSTITUT NATIONAL DE LA SANTÉ ET DE LA RECHERCHE …, priority 2013, published 2015).
Values belong to the molecule of their own block, whether it stands above or below them.

Columns and labels:
[1] = test system: TNBC breast cancer cell lines (Hs578T, MDA-MB-231 and MDA-MB-468); assay: In vitro motility assay (Boyden chambers); type: cell-based, human; details: cells pre-treated with the agent (inhibitors at non-cytotoxic amounts), exposed to cl-CD95L
Method: Boyden chambers (Millipore, Molsheim, France) containing 8 μm pore membranes were cultured in 24-well plates. After hydration of the membranes, 10^5 cells were added to the top chamber in low serum (1%)-containing medium. […] Cells were cultured for 24 h at 37° C. in a 5% CO2 humidified incubator. To quantify invasion, cells were fixed with methanol and stained with Giemsa. Stained cells were then removed from the top side of the membrane using a cotton-tipped swab and five representative pictures for each insert were taken of the invading cells from the reverse side. For each experiment, cells were lysed and absorbance at 560 nm was measured.

[2] = test system: PI3K; assay: Immunoblot of Akt phosphorylation at Ser473 (hallmark of PI3K activation) in cells exposed to cl-CD95L; type: cell-based, human; details: for effect on CD95-mediated PI3K activation (phosphorylation of Akt at serine 473): breast cancer / TNBC cells exposed to cl-CD95L; for effect on CD95-mediated activation of Aid: pre-treatment of mammary cancer cells, non-cytotoxic amounts
Method: (§1) Cells were lysed for 30 min at 4° C. in lysis buffer [25 mM HEPES (pH 7.4), 1% v/v Triton X-100, 150 mM NaCl, and 2 mM EGTA supplemented with a mix of protease inhibitors (Sigma-Aldrich)]. Protein concentration was determined by the bicinchoninic acid method (PIERCE, Rockford, Ill., USA) according to the manufacturer's protocol. Proteins were separated by SDS-PAGE and transferred to a nitrocellulose membrane (GE Healthcare, Buckinghamshire, England). […] The proteins were visualized with the enhanced chemiluminescence substrate kit (ECL, GE Healthcare).

[3] = test system: NADPHox; assay: Flow cytometry analysis of intracellular ROS (H2FDA); type: cell-based, human; details: pre-treatment with NADPHox inhibitor
Method: Cells were pre-incubated for 30 min at 37° C. with 3 μM of H2FDA resuspended in PBS. The cells were then pre-incubated for an additional 30 min with or without ROS inhibitors before stimulation with 100 ng/ml cl-CD95L for the indicated times. Cells were then washed and analyzed by FACScalibur (BD Bioscience).

[4] = test system: c-yes; assay: c-yes activation status (auto-phosphorylation at Tyrosine 426); type: cell-based, human; details: pre-treatment of mammary cancer cells, non-cytotoxic amounts
Method: as §1

[5] = test system: CD95-mediated Ca2+ response; assay: Ca2+ monitoring: CD95-mediated Ca2+ response; type: cell-based, human; details: TNBC cells exposed to cl-CD95L
Method: For experiments on parent cell lines, breast cancer cells were loaded with Fura2-PE3-AM (1 μM) at room temperature for 30 min in Hank's Balanced Salt Solution (HBSS). After washing with HBSS, the cells were incubated for 15 min in the absence of Fura2-AM to complete de-esterification of the dye. Cells were placed in the temperature controlled chamber (37° C.) of an inverted epifluorescence microscope (Olympus IX70) equipped with an ×40 UApo/340-1.15 W water-immersion objective (Olympus), and fluorescence micrograph images were captured at 510 nm and 12-bit resolution by a fast-scan camera (CoolSNAP fx Monochrome, Photometrics). To minimize UV light exposure, a 4×4 binning function was used. […]
For experiments on GFP-expressing cell lines, Fluo8-AM was used, instead of Fura2-PE3-AM for experiments with GFP-expressing cells (infected with shRNA-expressing lentivirus), because GFP fluorescence disturbs Ca^2+ measurement with Fura2-PE3. Efficiently transduced cells (GFP expressing cells) were located by their emission of fluorescence at 530±30 nm for a light excitation at 485±22 nm. Ca^2+ changes were evaluated by exciting Fluo8-AM-loaded cells at […]. The values of the emitted fluorescence (605±50 nm) for each cell (F) were normalized to the starting fluorescence (F0) and reported as F/F0 (relative Ca^2+[CYT]). […]

[6] = test system: EGFR; assay: Ca2+ monitoring: EGF-induced Ca2+ response; type: cell-based, human; details: TNBC cells (MDA-MB-231) in presence of EGF
Method: For experiments on parent cell lines, breast cancer cells were loaded with Fura2-PE3-AM (1 μM) at room temperature for 30 min in Hank's Balanced Salt Solution (HBSS). […] To minimize UV light exposure, a 4×4 binning function was used. Fura2-AM was alternately excited at 340 and 380 nm, and the ratios of the resulting images (excitations at 340 and 380 nm and emission filter at 520 nm) were produced at constant intervals (10 seconds). […] Fratio reflects the intracellular Ca^2+ concentration changes. Each experiment was repeated 3 times, and for each experimental condition, the average of more than 20 single-cell traces was used.

[7] = molecular target: CD95 (human) (UniProt P25445); assay: cell-based or functional assay
[8] = molecular target: T1, Nox-2 (human, UniProt P04839 2-570); assay: co-immunoprecipitation of CD95 (MISC) from MDA-MB-231 cells stimulated with cl-CD95L
T1 sequence (looked up): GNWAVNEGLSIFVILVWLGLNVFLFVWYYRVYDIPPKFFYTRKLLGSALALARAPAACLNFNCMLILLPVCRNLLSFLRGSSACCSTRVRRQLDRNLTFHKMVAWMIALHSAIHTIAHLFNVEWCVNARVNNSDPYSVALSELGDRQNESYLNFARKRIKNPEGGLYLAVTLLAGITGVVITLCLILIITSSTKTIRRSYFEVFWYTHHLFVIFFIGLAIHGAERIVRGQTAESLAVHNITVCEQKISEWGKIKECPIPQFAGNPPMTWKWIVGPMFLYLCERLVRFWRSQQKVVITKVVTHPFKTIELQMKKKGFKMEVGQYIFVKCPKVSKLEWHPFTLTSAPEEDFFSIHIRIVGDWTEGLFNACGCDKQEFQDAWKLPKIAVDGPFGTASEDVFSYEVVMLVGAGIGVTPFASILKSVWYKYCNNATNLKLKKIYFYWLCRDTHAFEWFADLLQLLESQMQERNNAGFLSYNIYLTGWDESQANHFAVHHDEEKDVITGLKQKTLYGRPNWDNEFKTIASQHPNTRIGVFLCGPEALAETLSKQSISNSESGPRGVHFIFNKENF
Method: (§2) The cells were then lysed, 1 μg of Apo1-3 was added to the cell lysate and CD95 was immunoprecipitated by the addition of protein A-sepharose beads (Sigma-Aldrich). […] After extensive washing, the immune complex was resolved by SDS-PAGE.

[9] = molecular target: T2, Nox-4 (human, UniProt Q9NPH5 1-578, limits assumed); assay: as above
T2 sequence (looked up): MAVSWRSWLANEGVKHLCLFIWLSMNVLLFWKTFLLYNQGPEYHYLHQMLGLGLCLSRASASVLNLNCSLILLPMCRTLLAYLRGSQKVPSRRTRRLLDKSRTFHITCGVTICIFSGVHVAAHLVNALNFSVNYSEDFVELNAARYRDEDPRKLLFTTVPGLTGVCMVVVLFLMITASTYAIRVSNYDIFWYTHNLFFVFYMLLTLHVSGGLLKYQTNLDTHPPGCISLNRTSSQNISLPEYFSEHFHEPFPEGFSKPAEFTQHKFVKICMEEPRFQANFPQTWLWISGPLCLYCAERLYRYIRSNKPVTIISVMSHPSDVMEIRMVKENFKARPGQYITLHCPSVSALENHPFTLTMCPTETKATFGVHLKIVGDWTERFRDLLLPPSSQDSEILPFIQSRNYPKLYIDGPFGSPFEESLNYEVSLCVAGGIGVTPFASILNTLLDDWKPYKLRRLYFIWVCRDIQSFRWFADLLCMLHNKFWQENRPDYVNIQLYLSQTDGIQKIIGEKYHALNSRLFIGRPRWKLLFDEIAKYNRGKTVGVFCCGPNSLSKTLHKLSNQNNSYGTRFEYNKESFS
Method: as §2

[10] = molecular target: T3, Nox-1 (human, UniProt Q9Y5S8 1-564, limits assumed); assay: as above
T3 sequence (looked up): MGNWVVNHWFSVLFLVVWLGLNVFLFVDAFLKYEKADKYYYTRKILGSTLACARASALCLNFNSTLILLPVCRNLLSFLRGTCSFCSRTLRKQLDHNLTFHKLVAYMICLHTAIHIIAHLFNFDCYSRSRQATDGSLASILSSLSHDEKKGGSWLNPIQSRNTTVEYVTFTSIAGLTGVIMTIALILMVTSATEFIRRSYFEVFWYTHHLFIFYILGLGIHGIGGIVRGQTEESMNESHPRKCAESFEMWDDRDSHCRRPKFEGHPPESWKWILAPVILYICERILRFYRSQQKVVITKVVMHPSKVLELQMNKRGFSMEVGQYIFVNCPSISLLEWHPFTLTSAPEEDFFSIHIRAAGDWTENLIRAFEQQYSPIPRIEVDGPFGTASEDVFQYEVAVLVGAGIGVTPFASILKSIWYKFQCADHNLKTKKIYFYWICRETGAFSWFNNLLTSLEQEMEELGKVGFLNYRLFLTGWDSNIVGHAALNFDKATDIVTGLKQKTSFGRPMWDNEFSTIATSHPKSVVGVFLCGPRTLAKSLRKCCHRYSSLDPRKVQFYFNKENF
Method: as §2

Molecule: CC(=O)OCOC(=O)CN(CC(=O)OCOC(C)=O)c1ccccc1OCCOc1ccccc1N(CC(=O)OCOC(C)=O)CC(=O)OCOC(C)=O [BAPTA-AM, 1,2-bis-(o-Aminophenoxy)ethane-N,N,N′,N′-tetraacetic Acid Tetra-(acetoxymethyl) Ester]
effect on migration of TNBC cells exposed to cl-CD95L [1]: inhibited
effect on CD95-mediated PI3K activation (phosphorylation of Akt at serine 473) [2]: inhibited

Molecule: Cc1nnsc1C(=O)Nc1ccc(-n2nc(C(F)(F)F)cc2C(F)(F)F)cc1 [BTP2]
effect on migration of TNBC cells exposed to cl-CD95L [1]: inhibited
effect on CD95-mediated PI3K activation (phosphorylation of Akt at serine 473) [2]: inhibited

Molecule: c1ccc2c(c1)[I+]c1ccccc1-2 [DPI, diphenyleneiodonium chloride]
effect on migration of TNBC cells exposed to cl-CD95L [1]: inhibited cell migration
effect on CD95-mediated activation of Aid [2]: impaired
effect on cl-CD95L-induced increase in intracellular ROS [3]: blocked
effect on CD95-mediated activation of c-yes [4]: impaired

Molecule: COc1cc(C(C)=O)ccc1O [apocynin]
effect on migration of TNBC cells exposed to cl-CD95L [1]: inhibited cell migration
effect on CD95-mediated activation of Aid [2]: impaired
effect on cl-CD95L-induced increase in intracellular ROS [3]: blocked
effect on CD95-mediated activation of c-yes [4]: impaired

Molecule: C#Cc1cccc(Nc2ncnc3cc(OCCOC)c(OCCOC)cc23)c1 [erlotinib]
effect on migration of TNBC cells exposed to cl-CD95L [1]: abolished
effect on CD95-mediated PI3K activation (phosphorylation of Akt at serine 473) [2]: prevented
effect on CD95-mediated Ca2+ response [5]: neither treatment with erlotinib nor EGFR silencing altered
effect on CD95-mediated Ca2+ response ([5]; listed as Erlotinib): do not alter
effect on EGF-induced Ca2+ response [6]: blocked
effect on EGF-induced Ca2+ response ([6]; listed as Erlotinib): abolished

cell migration (Boyden chamber) of TNBC cells [7]: 100 pg/mL
Molecule: metalloprotease-cleaved CD95L (from UniProt P48023 130-281) (ligand)

binding result [8]: no binding
binding result [9]: no binding
binding result [10]: no binding
B1: CD95 (receptor)
chain: QVTDINSKGLELRKTVTTVETQNLEGLHHDGQFCHKPCPPGERKARDCTVNGDEPDCVPCQEGKEYTDKAHFSSKCRRCRLCDEGHGLEVEINCTRTQNTKCRCKPNFFCNSTVCEHCDPCTKCEHGIIKECTLTSNTKCKEEGSRSNLGWLCLLLLPIPLIVWVKRKEVQKTCRKHRKENQGSHESPTLNPETVAINLSDVDLSKYITTIAGVMTLSQVKGFVRKNGVNEAKIDEIKNDNVQDTAEQKVQLLRNWHQLHGKKEAYDTLIKDLKKANLCTLAEKIQTIILKDITSDSENSNFRNEIQSLV
notes: also called Fas; FasR
